Values after ≈ are worked out from the molar mass of the structure shown.
How the values were obtained:
Assay type in all cases: functional
[1] = test system: Mycobacterium tuberculosis; test: Antimycobacterial activity against isoniazid/rifampicin/ethambutol-resistant Mycobacterium tuberculosis after 3 days by rapid direct susceptibility test; details: 72 h
[2] = test system: Mycobacterium tuberculosis; test: Potency index, ratio of isoniazid MIC to compound MIC for antimycobacterial activity against isoniazid/rifampicin/ethambutol-resistant Mycobacterium tuberculosis
[3] = test system: Mycobacterium tuberculosis; test: Potency index, ratio of rifampicin MIC to compound MIC for antimycobacterial activity against isoniazid/rifampicin/ethambutol-resistant Mycobacterium tuberculosis
[4] = test system: Mycobacterium tuberculosis; test: Potency index, ratio of moxifloxacin MIC to compound MIC for antimycobacterial activity against isoniazid/rifampicin/ethambutol-resistant Mycobacterium tuberculosis

COc1c(N2C[C@H]3CCCN(Cc4cn(CCCN5C(=O)/C(=N/O)c6cc(C)ccc65)nn4)[C@H]3C2)c(F)cc2c(=O)c(C(=O)O)cn(C3CC3)c12
MIC [1]: 2 µg/mL (≈ 2.86 µM)

COc1c(N2C[C@H]3CCCN(Cc4cn(CCCN5C(=O)C(=O)c6cc(C)ccc65)nn4)[C@H]3C2)c(F)cc2c(=O)c(C(=O)O)cn(C3CC3)c12
MIC [1]: 1 µg/mL (≈ 1.46 µM)

CO/N=C1/C(=O)N(CCCn2cc(CN3CCC[C@@H]4CN(c5c(F)cc6c(=O)c(C(=O)O)cn(C7CC7)c6c5OC)C[C@@H]43)nn2)c2ccccc21
MIC [1]: 0.25 µg/mL (≈ 0.358 µM)

CCO/N=C1/C(=O)N(CCCn2cc(CN3CCC[C@@H]4CN(c5c(F)cc6c(=O)c(C(=O)O)cn(C7CC7)c6c5OC)C[C@@H]43)nn2)c2ccccc21
MIC [1]: 0.25 µg/mL (≈ 0.351 µM)

COc1c(N2C[C@H]3CCCN(Cc4cn(CCCN5C(=O)C(=O)c6ccccc65)nn4)[C@H]3C2)c(F)cc2c(=O)c(C(=O)O)cn(C3CC3)c12
MIC [1]: 1 µg/mL (≈ 1.49 µM)

CO/N=C1/C(=O)N(CCCn2cc(CN3CCC[C@@H]4CN(c5c(F)cc6c(=O)c(C(=O)O)cn(C7CC7)c6c5OC)C[C@@H]43)nn2)c2ccc(F)cc21
Ratio [2]: 2 - 2048
Ratio [3]: 2 - 2048
Ratio [4]: 2 - 2048
MIC [1]: 0.06 µg/mL (≈ 0.0837 µM)

CCO/N=C1/C(=O)N(CCCn2cc(CN3CCC[C@@H]4CN(c5c(F)cc6c(=O)c(C(=O)O)cn(C7CC7)c6c5OC)C[C@@H]43)nn2)c2ccc(F)cc21
MIC [1]: 0.12 µg/mL (≈ 0.164 µM)

COc1c(N2C[C@H]3CCCN(Cc4cn(CCCN5C(=O)C(=O)c6cc(F)ccc65)nn4)[C@H]3C2)c(F)cc2c(=O)c(C(=O)O)cn(C3CC3)c12
MIC [1]: 0.25 µg/mL (≈ 0.364 µM)

COc1c(N2C[C@H]3CCCN(Cc4cn(CCCN5C(=O)/C(=N/O)c6ccccc65)nn4)[C@H]3C2)c(F)cc2c(=O)c(C(=O)O)cn(C3CC3)c12
MIC [1]: 1 µg/mL (≈ 1.46 µM)

COc1c(N2C[C@H]3CCCN(Cc4cn(CCCN5C(=O)/C(=N/O)c6cc(F)ccc65)nn4)[C@H]3C2)c(F)cc2c(=O)c(C(=O)O)cn(C3CC3)c12
MIC [1]: 0.25 µg/mL (≈ 0.356 µM)

CO/N=C1/C(=O)N(CCCn2cc(CN3CCC[C@@H]4CN(c5c(F)cc6c(=O)c(C(=O)O)cn(C7CC7)c6c5OC)C[C@@H]43)nn2)c2ccc(C)cc21
MIC [1]: 0.5 µg/mL (≈ 0.701 µM)

CCO/N=C1/C(=O)N(CCCn2cc(CN3CCC[C@@H]4CN(c5c(F)cc6c(=O)c(C(=O)O)cn(C7CC7)c6c5OC)C[C@@H]43)nn2)c2ccc(C)cc21
MIC [1]: 0.25 µg/mL (≈ 0.344 µM)

NNC(=O)c1ccncc1 [ISONIAZID]
MIC [1]: > 128 µg/mL

COc1c(N2C[C@@H]3CCCN[C@@H]3C2)c(F)cc2c(=O)c(C(=O)O)cn(C3CC3)c12 [MOXIFLOXACIN]
MIC [1]: 0.12 µg/mL (≈ 0.299 µM)

CO[C@H]1/C=C/O[C@@]2(C)Oc3c(C)c(O)c4c(O)c(c(/C=N/N5CCN(C)CC5)c(O)c4c3C2=O)NC(=O)/C(C)=C\C=C\[C@H](C)[C@H](O)[C@@H](C)[C@@H](O)[C@@H](C)[C@H](OC(C)=O)[C@@H]1C [RIFAMPIN]
MIC [1]: 32 µg/mL (≈ 38.9 µM)
